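Exposure lasted 48 hours, with cells grown in 96-well plates and compounds tested at five concentrations. At the GI50, growth is halved.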 The source made the active and inactive calls. No stated cut-off is given here; in the data, active = GI50 up to about 1.1 µM and inactive = higher.
Key:
Experiment in all cases: DTP human tumour cell line panel, 48 h
A549 = system: A549
SW-620 = system: SW-620
SN12C = system: SN12C
SNB-19 = system: SNB-19
HCT-15 = system: HCT-15
SF-539 = system: SF-539
OVCAR-5 = system: OVCAR-5
IGROV-1 = system: IGROV-1
Hs-578T = system: Hs-578T
KM12 = system: KM12
DU-145 = system: DU-145
SF-268 = system: SF-268
UACC-62 = system: UACC-62
U-251 = system: U-251
HOP-62 = system: HOP-62
OVCAR-3 = system: OVCAR-3
SK-OV-3 = system: SK-OV-3
786-0 = system: 786-0
SF-295 = system: SF-295
T47D = system: T47D

Compound	GI50 (A549)	GI50 (SW-620)	GI50 (SN12C)	GI50 (SNB-19)	GI50 (HCT-15) [µM]	GI50 (SF-539)	GI50 (OVCAR-5)	GI50 (IGROV-1)	GI50 (Hs-578T)	GI50 (KM12)	GI50 (DU-145)	GI50 (SF-268)	GI50 (UACC-62)	GI50 (U-251)	GI50 (HOP-62)	GI50 (OVCAR-3)	GI50 (SK-OV-3)	GI50 (786-0)	GI50 (SF-295)	GI50 (T47D)
O=C1C[C@H]2[C@H](c3ccc(Br)cc3)[C@H]3C(=O)c4ccccc4NC(=O)[C@@H]3[C@@]2(O)c2ccccc2N1	11.6 µM (inactive)	19.7 µM (inactive)	24.5 µM (inactive)	38.2 µM (inactive)	27.9	19.5 µM (inactive)	27.2 µM (inactive)	8.22 µM (inactive)	48 µM (inactive)	11.7 µM (inactive)	24 µM (inactive)	19.1 µM (inactive)	24.8 µM (inactive)	22.1 µM (inactive)	19.6 µM (inactive)	10.6 µM (inactive)	21 µM (inactive)	19.4 µM (inactive)	24 µM (inactive)	–
CC(C)=CC(C(O)c1ccccc1)S(=O)(=O)c1nccn1C (stereo not given)	> 100 µM (inactive)	> 100 µM (inactive)	> 100 µM (inactive)	> 100 µM (inactive)	> 100	> 100 µM (inactive)	> 100 µM (inactive)	> 100 µM (inactive)	–	> 100 µM (inactive)	–	> 100 µM (inactive)	> 100 µM (inactive)	> 100 µM (inactive)	> 100 µM (inactive)	> 100 µM (inactive)	> 100 µM (inactive)	> 100 µM (inactive)	> 100 µM (inactive)	–
COc1cc(CC(C(=O)O)C(=O)O)c(OC)cc1CC(C(=O)O)C(=O)O	> 100 µM (inactive)	> 100 µM (inactive)	> 100 µM (inactive)	> 100 µM (inactive)	> 100	> 100 µM (inactive)	> 100 µM (inactive)	> 100 µM (inactive)	–	> 100 µM (inactive)	–	> 100 µM (inactive)	> 100 µM (inactive)	> 100 µM (inactive)	> 100 µM (inactive)	> 100 µM (inactive)	> 100 µM (inactive)	> 100 µM (inactive)	> 100 µM (inactive)	–
O=C1/C(=C/c2cccc([N+](=O)[O-])c2)N=C(c2ccccc2)N1c1ccc2c(c1)Sc1cc(N3C(=O)/C(=C/c4cccc([N+](=O)[O-])c4)N=C3c3ccccc3)ccc1N2	53 µM (inactive)	31.2 µM (inactive)	–	21.2 µM (inactive)	> 100	–	18.5 µM (inactive)	20.1 µM (inactive)	30.2 µM (inactive)	> 100 µM (inactive)	36.7 µM (inactive)	20.1 µM (inactive)	17 µM (inactive)	24.7 µM (inactive)	20 µM (inactive)	12.6 µM (inactive)	16.4 µM (inactive)	21 µM (inactive)	14 µM (inactive)	25.4 µM (inactive)
Cc1nn(C)cc1P(=S)(c1ccccc1)c1ccccc1	55 µM (inactive)	51.9 µM (inactive)	> 100 µM (inactive)	> 100 µM (inactive)	32.4	> 100 µM (inactive)	> 100 µM (inactive)	> 100 µM (inactive)	–	36.4 µM (inactive)	–	81.8 µM (inactive)	47 µM (inactive)	92.5 µM (inactive)	70.3 µM (inactive)	> 100 µM (inactive)	24.8 µM (inactive)	> 100 µM (inactive)	67.5 µM (inactive)	–
COc1cc(C2c3cc4c(cc3[C@@H](OCCN(C)C)C3COC(=O)[C@H]23)OCO4)cc(OC)c1O (stereo not given in full)	0.0655 µM (active)	0.579 µM (active)	0.151 µM (active)	0.207 µM (active)	0.971	0.164 µM (active)	0.771 µM (active)	1.52 µM (inactive)	–	0.723 µM (active)	–	0.33 µM (active)	0.243 µM (active)	0.0849 µM (active)	0.045 µM (active)	1.76 µM (inactive)	0.163 µM (active)	0.139 µM (active)	0.145 µM (active)	–
COc1c2c(cc3nc4ccccc4nc13)CCC(C(C)(C)O)C2 (stereo not given)	> 100 µM (inactive)	> 100 µM (inactive)	> 100 µM (inactive)	> 100 µM (inactive)	> 100	> 100 µM (inactive)	> 100 µM (inactive)	> 100 µM (inactive)	–	82.6 µM (inactive)	–	> 100 µM (inactive)	> 100 µM (inactive)	> 100 µM (inactive)	> 100 µM (inactive)	49.5 µM (inactive)	> 100 µM (inactive)	> 100 µM (inactive)	> 100 µM (inactive)	–
CCOC(=O)C1CCCCc2sc(N)c(C#N)c21 (stereo not given)	> 100 µM (inactive)	> 100 µM (inactive)	> 100 µM (inactive)	> 100 µM (inactive)	> 100	–	> 100 µM (inactive)	> 100 µM (inactive)	> 100 µM (inactive)	> 100 µM (inactive)	–	–	> 100 µM (inactive)	> 100 µM (inactive)	> 100 µM (inactive)	–	–	> 100 µM (inactive)	–	–
COc1ccc(/C=C2/CCCC/C2=N/O)cc1	> 100 µM (inactive)	> 100 µM (inactive)	75.7 µM (inactive)	> 100 µM (inactive)	> 100	> 100 µM (inactive)	> 100 µM (inactive)	41 µM (inactive)	–	> 100 µM (inactive)	–	57.9 µM (inactive)	> 100 µM (inactive)	> 100 µM (inactive)	> 100 µM (inactive)	> 100 µM (inactive)	> 100 µM (inactive)	> 100 µM (inactive)	> 100 µM (inactive)	–
C/C(=N\O)c1sc(-n2nc(-c3ccccc3)cc2-c2ccccc2)nc1C	14.2 µM (inactive)	13.1 µM (inactive)	6.79 µM (inactive)	12.2 µM (inactive)	13.9	12.2 µM (inactive)	> 10 µM (inactive)	12.2 µM (inactive)	–	11.7 µM (inactive)	–	12.1 µM (inactive)	11.6 µM (inactive)	11.7 µM (inactive)	12 µM (inactive)	16.3 µM (inactive)	> 10 µM (inactive)	11.2 µM (inactive)	14 µM (inactive)	–
O=C1C(O)=C(CN(CCCl)CCCl)C(=O)c2ccccc21	34.3 µM (inactive)	53.2 µM (inactive)	57.1 µM (inactive)	50 µM (inactive)	31	34 µM (inactive)	76.9 µM (inactive)	20.5 µM (inactive)	–	56.5 µM (inactive)	–	43.1 µM (inactive)	39.6 µM (inactive)	64.3 µM (inactive)	> 100 µM (inactive)	45.1 µM (inactive)	> 100 µM (inactive)	28.2 µM (inactive)	70.3 µM (inactive)	–
CCCCN(C)CC(C(C)=O)C(c1ccccc1)c1c(O)c2ccccc2oc1=O (stereo not given)	> 100 µM (inactive)	> 100 µM (inactive)	> 100 µM (inactive)	> 100 µM (inactive)	> 100	> 100 µM (inactive)	> 100 µM (inactive)	> 100 µM (inactive)	–	> 100 µM (inactive)	–	> 100 µM (inactive)	> 100 µM (inactive)	> 100 µM (inactive)	> 100 µM (inactive)	> 100 µM (inactive)	> 100 µM (inactive)	> 100 µM (inactive)	> 100 µM (inactive)	–
C=C[C@]1(C)CCC2=C(CCC3C2(C)CCC[C@@]3(C)COC(C)=O)C1 (stereo not given in full)	22.8 µM (inactive)	19.3 µM (inactive)	16.8 µM (inactive)	17.6 µM (inactive)	16.8	20.9 µM (inactive)	18.2 µM (inactive)	20.7 µM (inactive)	–	19.3 µM (inactive)	–	23.4 µM (inactive)	21.1 µM (inactive)	17.8 µM (inactive)	22.9 µM (inactive)	17.7 µM (inactive)	18.5 µM (inactive)	17.3 µM (inactive)	17.8 µM (inactive)	–
CC1(C)O[C@@H](CP(c2ccccc2)c2ccccc2)[C@H](CP(c2ccccc2)c2ccccc2)O1	2.93 µM (inactive)	17.2 µM (inactive)	4.11 µM (inactive)	4.05 µM (inactive)	12.3	7 µM (inactive)	8.81 µM (inactive)	2.33 µM (inactive)	–	2.85 µM (inactive)	11.7 µM (inactive)	5.96 µM (inactive)	–	3.66 µM (inactive)	15.1 µM (inactive)	0.384 µM (active)	15.2 µM (inactive)	6.15 µM (inactive)	5.62 µM (inactive)	3.76 µM (inactive)
C1CSCC2(COC2)CSCCSCC2(COC2)CS1	> 100 µM (inactive)	> 100 µM (inactive)	> 100 µM (inactive)	> 100 µM (inactive)	> 100	> 100 µM (inactive)	> 100 µM (inactive)	> 100 µM (inactive)	–	> 100 µM (inactive)	> 100 µM (inactive)	> 100 µM (inactive)	> 100 µM (inactive)	> 100 µM (inactive)	> 100 µM (inactive)	> 100 µM (inactive)	> 100 µM (inactive)	> 100 µM (inactive)	> 100 µM (inactive)	> 100 µM (inactive)
CC(C)OC(=O)NCCn1cc(-c2ccccc2)nn1	> 100 µM (inactive)	–	> 100 µM (inactive)	> 100 µM (inactive)	> 100	> 100 µM (inactive)	> 100 µM (inactive)	–	–	> 100 µM (inactive)	> 100 µM (inactive)	> 100 µM (inactive)	–	> 100 µM (inactive)	> 100 µM (inactive)	–	–	> 100 µM (inactive)	> 100 µM (inactive)	–

— ChEMBL document CHEMBL1201862, “PubChem BioAssay data set” (2004)
